Results published in publication PMC12390684 (Viruses, 2025).

Target: IN-GCN2 interaction (6xHis-IN / GST-GCN2) (UniProt P04585+Q9P2K8)
Assay: biochemical
Format: binding, HIV-1 IN; human GCN2
Conditions: for IN-GCN2 interaction (%): single dose 100 µM, single replicate, residual AlphaLISA signal normalized to DMSO control

Chain of IN-GCN2 interaction (6xHis-IN / GST-GCN2) (Q9P2K8 192-1024, other chains not shown): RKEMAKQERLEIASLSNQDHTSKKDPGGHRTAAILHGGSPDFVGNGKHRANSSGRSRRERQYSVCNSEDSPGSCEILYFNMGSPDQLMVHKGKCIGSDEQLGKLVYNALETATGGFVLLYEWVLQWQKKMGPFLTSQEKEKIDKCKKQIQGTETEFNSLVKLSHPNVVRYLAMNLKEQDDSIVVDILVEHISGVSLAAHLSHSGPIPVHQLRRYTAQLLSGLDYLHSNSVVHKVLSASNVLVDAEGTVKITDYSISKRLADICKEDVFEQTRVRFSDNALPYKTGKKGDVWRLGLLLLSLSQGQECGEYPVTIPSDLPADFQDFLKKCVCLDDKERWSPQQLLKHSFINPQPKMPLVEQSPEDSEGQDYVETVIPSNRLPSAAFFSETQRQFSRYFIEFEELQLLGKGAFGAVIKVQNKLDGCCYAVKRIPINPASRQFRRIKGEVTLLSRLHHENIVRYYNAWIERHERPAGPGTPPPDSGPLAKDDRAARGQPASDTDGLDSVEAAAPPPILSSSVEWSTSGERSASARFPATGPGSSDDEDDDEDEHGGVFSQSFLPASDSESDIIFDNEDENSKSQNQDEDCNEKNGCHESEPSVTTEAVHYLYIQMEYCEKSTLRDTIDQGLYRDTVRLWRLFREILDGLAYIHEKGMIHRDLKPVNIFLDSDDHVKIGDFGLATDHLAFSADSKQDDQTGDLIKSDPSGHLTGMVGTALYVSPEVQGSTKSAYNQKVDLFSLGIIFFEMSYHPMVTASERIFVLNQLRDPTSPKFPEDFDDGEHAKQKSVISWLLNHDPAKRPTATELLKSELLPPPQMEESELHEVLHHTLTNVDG

| Structure (SMILES) | IN-GCN2 interaction (%) (screen) | also measured |
| --- | --- | --- |
| COC(=O)NC1C(C)OC(OC2C/C=C(/C)C3C=CC4C(OC5CC(OC6CCC(OC7CC(O)C(OC8CCC(O)C(C)O8)C(C)O7)C(C)O6)C(OC(C)=O)C(C)O5)C(C)CC(C)C4C3(C)/C(O)=C3/C(=O)OC4(CC(C=O)=CC(O)C4/C=C\2C)C3=O)CC1(C)[N+](=O)[O-] (stereo not shown) [NSC333856] | 110.41% | – |
| O=C(O)C1OC(O)C(O)C(O)C1O (stereo not shown) [NSC9248] | 110.72% | – |
| C=C1C(=O)O[C@H]2[C@H]1[C@H](OC(=O)/C(C)=C\C)C[C@]1(CO1)[C@@H]1[C@H](OC(C)=O)C=C(C)[C@]21O [NSC104943] | 118.84% | – |
| CC(=O)CCC(=O)O [NSC3716] | 123.74% | – |
| CCCCCCCCCCCCCCCC(=O)OC[C@H]1O[C@@H](n2ccc(N)nc2=O)[C@@H](O)[C@@H]1O [NSC135962] | 92.71% | – |
| CN1CC(=O)NC1=N [NSC13123] | 106.95% | – |
| COC(=O)[C@H]1[C@H]2C[C@H]3c4[nH]c5ccccc5c4CCN3C[C@@H]2CC[C@@H]1O [NSC407306] | 114.25% | – |
| COc1cc([C@@H]2c3cc4c(cc3C[C@H]3COC(=O)[C@@H]32)OCO4)cc(OC)c1OC [NSC403148] | 91.16% | – |
| C[C@@H]1C[C@@H]2CCCC(O)=C2C(=O)O1 [NSC112906] | 126.27% | – |
| O=C(O)c1ccc(O)c(O)c1 [NSC16631] | 69.74% | – |
| COC1C(C)OC(OC2CC(C)(O)Cc3cc4c(c(O)c32)C(=O)c2c(O)cc3c(c2C4=O)OC2OC3(C)C(O)C(N(C)C)C2O)C(OC)C1(C)OC (stereo not shown) [NSC265450] | 99.51% | – |
| CO[C@@H]1C[C@@H](C[C@H]2CC[C@H](C)[C@H]([C@@H](C)C(=O)[O-])O2)O[C@]2(O[C@](C)([C@H]3CC[C@@](C)([C@@H]4O[C@@H]([C@H]5O[C@@](O)(CO)[C@H](C)C[C@@H]5C)C[C@@H]4C)O3)C[C@H]2C)[C@@H]1C.[Na+] [NSC292567] | 95.66% | – |
| CC[C@](C)(O)C(=O)O[C@H]1C(=O)O[C@@H]2C[C@H]3C(C)=CC(=O)[C@@H](O)[C@]3(C)[C@H]3[C@@]4(O)OC[C@]32[C@@H]1[C@@H](C)[C@H]4O [NSC132791] | 89.72% | – |
| C/C=C/C(=O)O [NSC8751] | 85.97% | – |
| CCC1(O)CC(OC2CC(N(C)C)C(OC3CC(O)C(OC4CC(O)C(O)C(C)O4)C(C)O3)C(C)O2)c2c(cc3c(c2O)C(=O)c2c(O)ccc(O)c2C3=O)C1C(=O)OC (stereo not shown) [NSC265211] | 39.6% | IC50 (IC50, inhibition of IN-GCN2 interaction, SAR study, fresh dilutions from powder, at least three independent experiments): > 100 µM; inhibition at 100 µM (read-out: inhibition of IN-GCN2 interaction): ~60%; IN-GCN2 interaction (%) (screen, listed as 265211): 39.59% |
| N#C[C@H](O[C@@H]1O[C@H](CO[C@@H]2O[C@H](CO)[C@@H](O)[C@H](O)[C@H]2O)[C@@H](O)[C@H](O)[C@H]1O)c1ccccc1 [NSC15780] | 121.81% | – |
| CC(=O)O[C@@H]1[C@@H](O)[C@H](O[C@H]2[C@H](OC(=O)[C@H]3CC[C@H]4[C@@H](C3)O[C@@]3(C[C@H](OC(=O)/C=C/c5ccccc5)[C@H](C)CO3)[C@]43CO3)O[C@H](C)[C@@H](O)[C@@H]2OC(C)=O)O[C@H](C)[C@H]1O [NSC328426] | 91.16% | – |
| N=C1C=C(N)C(=O)c2[nH]c(=O)ccc21 [NSC111041] | 43.78% | – |
| CC1=C[C@H](O)[C@@H](O)[C@]2(C)[C@H]3[C@@]4(O)OC[C@@]35[C@@H](C[C@@H]12)OC(=O)C[C@H]5[C@@H](C)[C@H]4O [NSC79404] | 87.44% | – |
| O=C(O)C1C2CC3OC(=O)C1C3C2 (stereo not shown) [NSC12444] | 94.03% | – |
| COc1cc2c3c(c1O)-c1ccccc1C[C@@H]3N(C)CC2 [NSC785159] | – | effect on IN-GCN2 interaction in the screen, in words (screen, 100 µM, inactive = within 10% of the DMSO control): inactive; IN-GCN2 interaction (%) (screen, listed as 785159): 94.21% |
